According to patent US5422342A, “2,3-disubstituted isoxazolidines, agents containing them and their use” (Hoechst Aktiengesellschaft, priority 1986, dated 1995):
Several values for one entry are separate records, joined by “and”; a condition that tells them apart may be missing. Equal values may be shown once.

What was measured:
prolyl hydroxylase = prolyl hydroxylase (Homo sapiens, UniProt P13674); experiment: prolyl hydroxylase enzyme assay with preincubation (suicide inhibition); assay type: biochemical; conditions: concentration which inactivates 50% of the enzyme after one hour; preincubation with iron(II) ions, α-ketoglutarate and ascorbate
Chain of prolyl hydroxylase (P13674 18-534): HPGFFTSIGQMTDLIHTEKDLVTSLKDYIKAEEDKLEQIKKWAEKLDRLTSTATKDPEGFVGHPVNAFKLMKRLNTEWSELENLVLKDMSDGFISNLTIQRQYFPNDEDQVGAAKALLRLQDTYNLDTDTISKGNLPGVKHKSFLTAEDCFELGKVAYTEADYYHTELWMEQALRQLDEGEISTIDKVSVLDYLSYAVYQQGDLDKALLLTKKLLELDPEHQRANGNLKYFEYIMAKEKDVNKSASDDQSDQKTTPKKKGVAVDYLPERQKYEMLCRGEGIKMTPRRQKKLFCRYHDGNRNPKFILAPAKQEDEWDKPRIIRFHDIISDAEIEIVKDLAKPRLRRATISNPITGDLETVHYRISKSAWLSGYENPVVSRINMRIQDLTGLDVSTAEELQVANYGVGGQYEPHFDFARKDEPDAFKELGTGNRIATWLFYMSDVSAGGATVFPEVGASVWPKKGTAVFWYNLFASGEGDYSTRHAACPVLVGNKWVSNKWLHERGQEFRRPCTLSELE
Chain of prolyl hydroxylase (P07237 18-508 partner): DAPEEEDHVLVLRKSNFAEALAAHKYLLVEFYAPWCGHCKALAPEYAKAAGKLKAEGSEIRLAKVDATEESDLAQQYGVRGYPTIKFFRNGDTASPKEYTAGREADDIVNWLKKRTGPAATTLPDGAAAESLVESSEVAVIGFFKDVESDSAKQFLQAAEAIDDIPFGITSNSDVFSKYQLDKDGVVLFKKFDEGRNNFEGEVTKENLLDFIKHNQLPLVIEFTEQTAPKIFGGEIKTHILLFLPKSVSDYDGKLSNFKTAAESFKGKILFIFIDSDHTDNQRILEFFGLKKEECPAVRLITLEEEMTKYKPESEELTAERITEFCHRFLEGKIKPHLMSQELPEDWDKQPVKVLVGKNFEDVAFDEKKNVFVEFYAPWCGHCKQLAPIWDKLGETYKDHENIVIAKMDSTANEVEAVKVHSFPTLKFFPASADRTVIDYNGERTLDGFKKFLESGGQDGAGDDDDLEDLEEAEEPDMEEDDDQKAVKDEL
Method: The inhibitory action can be determined in an enzyme assay analogous to the method of B. Peterkofsky and R. DiBlasio Anal. Biochem. 66, 279-286 (1975). This entails underhydroxylated collagen being enzymatically hydroxylated with prolyl hydroxylase in the presence of iron(II) ions, α-ketoglutarate and ascorbate.
The suicidal nature of the inhibition is established by preincubation of the enzyme in the presence of iron(II) ions, α-ketoglutarate and ascorbate with the inhibitors for various times, and then determination of the remaining activity of the enzyme in the presence of a peptide substrate. It is possible to use for determination of the activity both the method of Peterkofsky and DiBlasio described above and other methods such as described by K. I. Kivirikko and R. Myllyla, Meth. Enzym. 82, 245-304 (1982). The concentration which inactivates 50% of the enzyme after one hour is stated.

calvarial culture = experiment: inhibitory action in calvarial culture (hydroxyproline/proline quotient); assay type: cell-based; conditions: concentration giving 50% decrease in the hydroxyproline/proline quotient on feeding with 14C-proline
Excerpt: The inhibitory action can also be determined in cell or tissue culture. It is possible to use for this purpose fibroblasts or other collagen-producing cells, or calvariae or other collagen-producing organs. Table 2 is a compilation of the inhibitory action of some substances according to the invention in calvarial culture. The concentration which results in a 50% decrease in the hydroxyproline/proline quotient on feeding with ^14 C-proline is stated.

[1] = system: C1q biosynthesis by macrophages; conditions: W. Muller et al., FEBS Lett. 90, 218f (1978); cited from earlier work

IC50 (calvarial culture) | Compound | ID50 [60 min; μmol/l] (prolyl hydroxylase) [µmol/L] | effect on C1q biosynthesis by macrophages [1]
 | CS(=O)(=O)CCOC(=O)NC(CCC(=O)OCc1ccccc1)C(=O)N1OCCC1C(=O)NCC(=O)OCc1ccccc1 (centres unmarked) [Msc--Glu(OBzl)--Opr--Gly--OBzl] | 30.0 | 
 | CN(CC(=O)OCc1ccccc1)C(=O)C1CCON1C(=O)C(Cc1ccccc1)NC(=O)OCc1ccccc1 (centres unmarked) [Z--Phe--Opr--Sar-- OBzl, Z--Phe--Opr--Sar--OBzl] | > 10000.0 | 
 | O=C(CCc1ccccc1)CNC(=O)C1CCON1C(=O)C(Cc1ccccc1)NC(=O)OCc1ccccc1 (stereo not drawn) [Z-Phe-Opr-NH--CH2 --CO--CH2 --CH2 --C6 H5] | 3.4 | 
 | O=C(CNC(=O)C1CCON1C(=O)C(Cc1ccccc1)NC(=O)OCc1ccccc1)OCCc1ccccc1 (centres unmarked) [Z--Phe--Opr--Gly--O--CH2 --CH2 --C6 H5] | 0.9 | 
 | O=C(CNC(=O)C1CCON1C(=O)C1Cc2ccccc2CN1C(=O)OCc1ccccc1)OCc1ccccc1 (centres unmarked) [Z--Tic--Opr--Gly--OBzl] | 1.5 | 
 | O=C(CNC(=O)C1CCON1C(=O)CCc1ccccc1)OCc1ccccc1 (centres unmarked) [C6 H5 --CH2 --CH2 --CO--Opr--Gly--OBzl, N-3-Phenylpropionyl-Opr--Gly--OBzl] | 2000.0 | 
 | CC(NC(=O)OCc1ccccc1)C(=O)N1OCCC1C(=O)NCC(=O)OCc1ccccc1 (centres unmarked) [Z--(D)--Ala--Opr--Gly--OBzl, Z--(D)-- Ala--Opr--Gly--OBzl] | > 10000.0 | 
 | O=C(CNC(=O)C1CCON1C(=O)C(CCCCN1C(=O)c2ccccc2C1=O)NC(=O)OCc1ccccc1)OCc1ccccc1 (centres unmarked) [Z--Lys(Pht)--Opr--Gly--OBzl] | 11.0 | 
 | CC(=O)N1CCCC1C(=O)N1OCCC1C(=O)NCC(=O)OCc1ccccc1 (centres unmarked) [Ac--Pro--Opr--Gly--OBzl] | 60.0 | 
 | O=C(NC(Cc1ccccc1)C(=O)N1OCCC1C(=O)NCC(=O)c1ccccc1)OCc1ccccc1 (centres unmarked) [Z--Phe--Opr--NH--CH2 --CO--C6 H5, ZPheOprNHCH2 COC6 H5] | 2.4 | 
 | CC(=O)N1CCCC1C(=O)N1OCCC1C(=O)NCC(=O)NCCc1ccccc1 (centres unmarked) [Ac--Pro--Opr--Gly--NH--CH2 --CH2 --C6 H5] | 4900.0 | 
 | Z-Phe(r)-Opr-Gly-OBzl [Z--Phe(r)--Opr--Gly--OBzl] | 1.1 | 
2500 µM | O=C(CNC(=O)C1CCON1C(=O)Cc1ccccc1)OCc1ccc([N+](=O)[O-])cc1 (centres unmarked) [4-Nitrobenzyl ester of N-phenylacetyl-Opr-Gly] | 540.0 | 
7500 µM | CC(=O)N1CCCC1C(=O)N1OCCC1C(=O)NCC(=O)OC(C)(C)C (centres unmarked) [Ac--Pro--Opr--Gly--OtBu] | 8000.0 | 
 | c1ccc(-c2ccccn2)nc1 [α,α-dipyridyl] |  | inhibition of C1q biosynthesis by macrophages
 | O=C(O)CCC(NC(=O)OCc1ccccc1)C(=O)N1OCCC1C(=O)NCC(=O)OCc1ccccc1 (centres unmarked) [Z--Glu--Opr--Gly--OBzl] | 5000.0 | 
550 µM | CC(C)(C)OC(=O)CNC(=O)C1CCON1C(=O)C1CCCN1C(=O)OCc1ccccc1 (centres unmarked) [Z--Pro--Opr--Gly--OtBu] |  | 
2000 µM | O=C(CNC(=O)C1CCON1C(=O)Cc1ccccc1)OCc1ccccc1 (centres unmarked) [C6 H5 --CH2 --CO--Opr--Gly--OBzl] | 1000.0 | 
 | CC(NC(=O)OCc1ccccc1)C(=O)N1OCCC1C(=O)NCC(=O)OC(C)(C)C (centres unmarked) [Z--Ala--Opr--Gly--OtBu, Z--Ala--Opr--Gly--OtBU] | 40.0 | 
 | O=C(CNC(=O)C1CCON1C(=O)C(Cc1ccccc1)NC(=O)OCc1ccccc1)OCc1ccc(F)cc1 (centres unmarked) [Z--Phe--Opr--Gly--O--CH2 --C6 H4-4-F] | 0.8 | 
 | O=C(CNC(=O)C1CCON1Cc1ccccc1)OCc1ccccc1 (stereo not drawn) [C6 H5 --CH2 --Opr--Gly--OBzl, C6 H5 --CH2 -Opr-Gly-OBzl] | 610.0 | 
 | O=C(CNC(=O)C1CCON1C(=O)C(Cc1ccc(O)cc1)NC(=O)OCc1ccccc1)OCc1ccccc1 (centres unmarked) [Z--Tyr--Opr--Gly--OBzl] | 2.4 | 
1650 µM and 2500 µM | C[C@H](NC(=O)OCc1ccccc1)C(=O)N1OCCC1C(=O)NCC(=O)OCc1ccccc1 (some centres unmarked) [Z--Ala--Opr--Gly--OBzl] | 3.0 | 
 | CC(NC(=O)OCc1ccccc1)C(=O)N1OCCC1C(=O)NCC(=O)O (centres unmarked) [Z--Ala--Opr--Gly--OH] | 330.0 | 
 | HPheOprNHCH2 COC6 H4 -4-Cl [H--Phe--Opr--NH--CH2 --CO--C6 H4-4-Cl] | 15.5 | 
 | CCN(CC)C(=O)CNC(=O)C1CCON1C(=O)C1CCCN1C(C)=O (centres unmarked) [Ac--Pro--Opr--Gly--N(C2 H5)2] | 16900.0 | 
 | O=C(CNC(=O)C1CCON1C(=O)C(Cc1ccccc1)NC(=O)OCc1ccccc1)OCc1ccccc1 (stereo not drawn) [Z--Phe--Opr--Gly--OBzl, Z-Phe-Opr-Gly-OBzl] | 0.8 | 
 | CC(=O)N1CCCC1C(=O)N1OCCC1C(=O)NCC(=O)NCc1ccccc1 (centres unmarked) [Ac--Pro--Opr--Gly--NH--CH2 --C6 H5] | 6000.0 | 
 | N#Cc1ccc(C(=O)CNC(=O)C2CCON2C(=O)C(Cc2ccccc2)NC(=O)OCc2ccccc2)cc1 (centres unmarked) [Z--Phe--Opr--NH--CH2 --CO--C6 H4-4-CN, ZPheOprNHCH2 COC6 H4-4-CN] | 1.1 | 
380 µM | CC(C)C(NC(=O)OCc1ccccc1)C(=O)N1OCCC1C(=O)NCC(=O)OCc1ccccc1 (centres unmarked) [Z--Val--Opr--Gly--OBzl] | 40.0 | 
